Columns and labels:
Type in all cases: cell-based
[1] = test system: OCI-LY10 cells (MYD88 mutant); assay: Cell viability assay (CellTiter-Glo) with OCI-LY10; settings: Homo sapiens, MYD88 mutant line, read-out: OCI-LY10 Viability, CTG IC50
Protocol: Compound-mediated viability effect on OCI-LY10 or TMD8 was quantitatively determined using the CellTiter-Glo® Luminescent Cell Viability Assay kit from Promega (Catalog number G7570) following manufacturer's recommended procedures. Briefly, OCI-LY10 or TMD8 cells were seeded into 384 well plates (Grenier Bio-One, Catalog number 781080) with a density of 10,000 cells per well. Compounds were then added to the assay plate with final top concentration of 10 μM and 1:3 dilution series with total of 9 doses. The final DMSO concentration was normalized to 0.2%. The assay plates were incubated at 37° C. for 4 days under 5% CO2. Then the assay plate was equilibrated at room temperature for 10 minutes. To determine cell viability, 30 μL CellTiter Glo reagent was added to each well and the assay plate was centrifuged at 1000 rpm for 30 second, incubated at room temperature for 10 min, and analyzed by detecting the luminescence using a multimode plate reader (EnVision 2105, PerkinElmer). The data was then analyzed by software Prism 7.0 from GraphPad and the dose response curves were fit using a three-parameter logistic equation to calculate IC50.

[2] = test system: SU-DHL2 cells (MYD88 mutant); assay: Cell viability (CTG) with SU-DHL2; settings: Homo sapiens, SU-DHL-2; MYD88 mutant line
[3] = test system: SU-DHL6 cells (MYD88 WT); assay: Cell viability (CTG) with SU-DHL6; settings: Homo sapiens, SU-DHL-6; MYD88 WT line
[4] = test system: U2932 cells (MYD88 WT); assay: Cell viability (CTG) with U2932; settings: Homo sapiens, MYD88 WT line
[5] = test system: OCI-LY19 cells (MYD88 WT); assay: Cell viability (CTG) with OCI-LY19; settings: Homo sapiens, MYD88 WT line

With `CC[C@@H]1CC(=O)N[C@@H]1COc1ncc(C#C[C@H]2CC[C@H](CN3CCC(OCCCc4cccc5c4n(C)c(=O)n5C4CCC(=O)NC4=O)CC3)CC2)c2cc(C(N)=O)c(OC)cc12` (some centres unmarked) [I-1] the IC50 [1] was 3.5 µM, the IC50 [2] was greater than 10 µM and the IC50 [3] was 4.1 µM. It also gave an IC50 [4] greater than 10 µM and an IC50 [5] greater than 10 µM.

Reference: patent US20230089916A1, “IRAK DEGRADERS AND USES THEREOF” (Kymera Therapeutics, Inc., priority 2019, published 2023)
